From ChEMBL document CHEMBL6103548, “Recent advances in screening methods enabling the discovery of novel anti-hepatitis B virus drug candidates” (Eur J Med Chem, 2025)

How the values were obtained:
[1] = Cytotoxicity against human HepDE19 cells; assay type: toxicity, cell-based
[2] = Antiviral activity against HBV infected in SRluc-HBc6 cells; assay type: functional, cell-based; conditions: Hepatitis B virus
[3] = Cytotoxicity against SRluc-HBc6 cells (unknown origin); assay type: functional
[4] = Cytotoxicity against human HePAD38 cells assessed as reduction in cell viability by XTT assay; assay type: functional
Hepatitis B virus [5] = assay: Antiviral activity against Hepatitis B virus infected in human HePAD38 cells assessed as inhibition of viral DNA replication by qPCR analysis; assay type: functional, organism-based
Hepatitis B virus [6] = assay: Antiviral activity against Hepatitis B virus infected in HepDE19 cells assessed as inhibition of viral replication; assay type: functional, organism-based
Hepatitis B virus [7] = assay: Antiviral activity against HBV infected in human HePAD38 cells assessed as reduction in intracellular core HBV DNA replication by Southern blot analysis; assay type: functional, organism-based
[8] = Cytotoxicity against human HePAD38 cells assessed as reduction in cell viability incubated for 72 hrs by MTT assay; assay type: functional
HepG2 [9] = assay: Cytotoxicity against human HepG2 cells by XTT assay; assay type: functional
Hepatitis B virus [10] = assay: Antiviral activity against Hepatitis B virus assessed as inhibition of HbsAg level
Hepatitis B virus [11] = assay: Antiviral activity against Hepatitis B virus assessed as inhibition of HbeAg level
HepG2 [12] = assay: Cytotoxicity against human HepG2 cells assessed as reduction in cell viability incubated for 24 hrs by CCK-8 assay; assay type: functional
Hepatitis B virus [13] = assay: Antiviral activity against HBV infected in human HepG2 cells assessed as reduction in viral DNA replication; assay type: functional, organism-based
Hepatitis B virus [14] = assay: Antiviral activity against HBV infected in human HepG2-hNTCP cells assessed as inhibition of HBsAg formation; assay type: functional, organism-based
HepG2 [15] = assay: Cytotoxicity against human HepG2 cells assessed as reduction in cell growth; assay type: functional

In the case of `Cc1nc2cc(NC(=O)c3ccc(S(=O)(=O)N(C)Cc4ccccc4)cc3)ccc2s1`, the CC50 [1] is reported as 2.57 µM.

With `O=C(CN(c1cc(C(F)(F)F)ccc1Cl)S(=O)(=O)c1ccccc1)NCc1ccncc1` the CC50 [1] was > 50 µM.

In the case of `CC1=C[C@@H]2C(=O)[C@]3(C=C(C)[C@H](O)[C@@]3(O)[C@@H]1O)[C@H](C)C[C@@H]1[C@H]2C1(C)C`, the EC50 [2] is reported as 8.9 µM and the CC50 [3] is reported as > 100 µM.

With `Cc1c(C(=O)Nc2ccccc2)sc(N)c1C(N)=O` the CC50 [4] was > 300 µM and the EC50 (Hepatitis B virus [5]) was 3.6 µM.

Compound `O=C(O)C1CC(OCCOc2ccc(-c3cc(=O)c4cccc(Cl)c4o3)cc2)C1` (configuration not stated) has an EC50 (Hepatitis B virus [6]) of 0.1 µM and a CC50 [1] of 0.2 µM.

With `NC(=O)c1ccc(N)nc1` [6-AMINONICOTINAMIDE] the EC50 (Hepatitis B virus [7]) was 23.9 µM and the CC50 [8] was > 500 µM.

With `Cc1cc(C2CCCCC2)n(O)c(=O)c1` [CICLOPIROX] the EC50 (Hepatitis B virus [5]) was 0.88 µM and the CC50 (HepG2 [9]) was > 10 µM.

With `C/C=C/C[C@@H](C)[C@@H](O)[C@H]1C(=O)N[C@@H](CC)C(=O)N(C)CC(=O)N(C)[C@@H](CC(C)C)C(=O)N[C@@H](C(C)C)C(=O)N(C)[C@@H](CC(C)C)C(=O)N[C@@H](C)C(=O)N[C@H](C)C(=O)N(C)[C@@H](CC(C)C)C(=O)N(C)[C@@H](CC(C)C)C(=O)N(C)[C@@H](C(C)C)C(=O)N1C` [CYCLOSPORINE] the IC50 (Hepatitis B virus [10]) was 0.372 µM and the IC50 (Hepatitis B virus [11]) was 0.311 µM.

With `O=c1oc2ccccc2c(O)c1Cc1c(O)c2ccccc2oc1=O` [DICUMAROL] the CC50 (HepG2 [12]) was > 800 µM and the EC50 (Hepatitis B virus [13]) was 100 µM.

`CCCCC1=NC2(CCCC2)C(=O)N1Cc1ccc(-c2ccccc2-c2nnn[nH]2)cc1` [IRBESARTAN] gave an EC50 (Hepatitis B virus [14]) of 35 µM and a CC50 (HepG2 [15]) of 287 µM.

With `CC(=O)Oc1ccccc1C(=O)Nc1ncc([N+](=O)[O-])s1` [NITAZOXANIDE] the CC50 (HepG2 [12]) was 57 µM and the EC50 (Hepatitis B virus [13]) was < 10 µM.

Compound `CCOC(=O)c1c(CSc2ccccc2)n(C)c2cc(Br)c(O)c(CN(C)C)c12` [UMIFENOVIR] has an EC50 [2] of 2.3 µM and a CC50 [3] of 58.4 µM.
